Laboratory results reported in US20230257396A1, “MACROCYCLES AND THEIR USE” (BLOSSOMHILL THERAPEUTICS, INC., priority 2020, published 2023).
Numbering of substitutions follows the chain as printed.

Legend:
Assay in all cases: KINOMEscan kinase binding assay (Eurofins/DiscoveRx), % Ctrl
[1] = target: T1, kinases (Homo sapiens, UniProt P09619)
T1 construct: purchased Eurofins/DiscoveRx; host or cells: E. coli BL21-derived host (T7 phage display) for most kinases; HEK-293 for the rest
Method: (§1) Kinase binding assays were performed at Eurofins/DiscoveRx using the general KINOMEscan Protocol (Fabian, M. A. et al., “A small molecule-kinase interaction map for clinical kinase inhibitors,” Nat. Biotechnol. 2005, 23(3):329-36). For most assays, kinase-tagged T7 phage strains were prepared in an E. coli host derived from the BL21 strain. E. coli were grown to log-phase and infected with T7 phage and incubated with shaking at 32° C. until lysis. The lysates were centrifuged and filtered to remove cell debris. The remaining kinases were produced in HEK-293 cells and subsequently tagged with DNA for qPCR detection. Streptavidin-coated magnetic beads were treated with biotinylated small molecule ligands for 30 minutes at room temperature to generate affinity resins for kinase assays. The liganded beads were blocked with excess biotin and washed with blocking buffer (SeaBlock (Pierce), 1% BSA, 0.05% Tween 20, 1 mM DTT) to remove unbound ligand and to reduce nonspecific binding. Binding reactions were assembled by combining kinases, liganded affinity beads, and test compounds in 1×binding buffer (20% SeaBlock, 0.17×PBS, 0.05% Tween 20, 6 mM DTT). All reactions were performed in polystyrene 96-well plates in a final volume of 0.135 mL. The assay plates were incubated at room temperature with shaking for 1 hour and the affinity beads were washed with washbuffer (1×PBS, 0.05% Tween 20). The beads were then re-suspended in elution buffer (1× PBS, 0.05% Tween 20, 0.5 μM non-biotinylated affinity ligand) and incubated at room temperature with shaking for 30 minutes. The kinase concentration in the eluates was measured by qPCR. Results for compounds tested in this assay at a given concentration are reported as “% Ctrl”, where lower numbers indicate stronger binding in the matrix.
(§2) (test compound signal-positive control signal)/(negative control signal-positive control signal) X100

[2] = target: T2, kinases (Homo sapiens, UniProt P10721, V559D/V654A)
T2 construct: purchased Eurofins/DiscoveRx; host or cells: E. coli BL21-derived host (T7 phage display) for most kinases; HEK-293 for the rest
Method: as §1, §2

[3] = target: T3, kinases (Homo sapiens, UniProt P10721, T670I/V559D)
T3 construct: purchased Eurofins/DiscoveRx; host or cells: E. coli BL21-derived host (T7 phage display) for most kinases; HEK-293 for the rest
Method: as §1, §2

[4] = target: T4, kinases (Homo sapiens, UniProt P17948)
T4 construct: purchased Eurofins/DiscoveRx; host or cells: E. coli BL21-derived host (T7 phage display) for most kinases; HEK-293 for the rest
Method: as §1, §2

[5] = target: T5, kinases (Homo sapiens, UniProt P36888)
T5 construct: purchased Eurofins/DiscoveRx; host or cells: E. coli BL21-derived host (T7 phage display) for most kinases; HEK-293 for the rest
T5 sequence (P36888 27-993): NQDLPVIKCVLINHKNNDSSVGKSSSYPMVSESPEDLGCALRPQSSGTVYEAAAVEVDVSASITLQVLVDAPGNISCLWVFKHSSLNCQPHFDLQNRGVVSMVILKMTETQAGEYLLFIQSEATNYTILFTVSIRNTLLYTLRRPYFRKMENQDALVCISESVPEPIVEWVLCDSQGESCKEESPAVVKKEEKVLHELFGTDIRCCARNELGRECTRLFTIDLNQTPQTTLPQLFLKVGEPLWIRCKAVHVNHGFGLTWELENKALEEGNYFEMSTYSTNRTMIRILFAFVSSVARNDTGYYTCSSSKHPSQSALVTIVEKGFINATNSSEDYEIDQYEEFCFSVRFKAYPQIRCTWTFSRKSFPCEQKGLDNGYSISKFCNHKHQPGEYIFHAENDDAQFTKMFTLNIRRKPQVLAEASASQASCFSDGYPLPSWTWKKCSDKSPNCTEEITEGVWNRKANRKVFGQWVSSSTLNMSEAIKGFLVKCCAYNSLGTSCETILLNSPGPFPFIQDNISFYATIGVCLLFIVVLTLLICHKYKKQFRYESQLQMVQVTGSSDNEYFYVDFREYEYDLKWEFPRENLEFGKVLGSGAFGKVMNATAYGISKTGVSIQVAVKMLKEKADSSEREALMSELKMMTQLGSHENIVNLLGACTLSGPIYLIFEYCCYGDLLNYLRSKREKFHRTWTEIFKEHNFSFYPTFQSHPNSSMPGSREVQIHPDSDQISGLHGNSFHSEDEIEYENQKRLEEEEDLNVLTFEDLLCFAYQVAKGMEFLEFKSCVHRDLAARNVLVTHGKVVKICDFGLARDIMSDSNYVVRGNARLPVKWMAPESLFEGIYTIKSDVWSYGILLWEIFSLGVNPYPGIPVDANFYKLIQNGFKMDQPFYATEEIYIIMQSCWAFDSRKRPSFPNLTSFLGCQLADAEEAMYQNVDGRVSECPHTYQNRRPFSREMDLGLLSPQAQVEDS
Method: as §1, §2

[6] = target: T6, kinases (Homo sapiens, UniProt P36888, R834Q)
T6 construct: purchased Eurofins/DiscoveRx; host or cells: E. coli BL21-derived host (T7 phage display) for most kinases; HEK-293 for the rest
T6 sequence (P36888 27-993 R834Q): T5 sequence (P36888 27-993) with R808Q
Method: as §1, §2

[7] = target FLT3-autoinhibited; 1 μM
[8] = 1 μM; target FLT3-autoinhibited

T4 sequence (P17948 27-1338): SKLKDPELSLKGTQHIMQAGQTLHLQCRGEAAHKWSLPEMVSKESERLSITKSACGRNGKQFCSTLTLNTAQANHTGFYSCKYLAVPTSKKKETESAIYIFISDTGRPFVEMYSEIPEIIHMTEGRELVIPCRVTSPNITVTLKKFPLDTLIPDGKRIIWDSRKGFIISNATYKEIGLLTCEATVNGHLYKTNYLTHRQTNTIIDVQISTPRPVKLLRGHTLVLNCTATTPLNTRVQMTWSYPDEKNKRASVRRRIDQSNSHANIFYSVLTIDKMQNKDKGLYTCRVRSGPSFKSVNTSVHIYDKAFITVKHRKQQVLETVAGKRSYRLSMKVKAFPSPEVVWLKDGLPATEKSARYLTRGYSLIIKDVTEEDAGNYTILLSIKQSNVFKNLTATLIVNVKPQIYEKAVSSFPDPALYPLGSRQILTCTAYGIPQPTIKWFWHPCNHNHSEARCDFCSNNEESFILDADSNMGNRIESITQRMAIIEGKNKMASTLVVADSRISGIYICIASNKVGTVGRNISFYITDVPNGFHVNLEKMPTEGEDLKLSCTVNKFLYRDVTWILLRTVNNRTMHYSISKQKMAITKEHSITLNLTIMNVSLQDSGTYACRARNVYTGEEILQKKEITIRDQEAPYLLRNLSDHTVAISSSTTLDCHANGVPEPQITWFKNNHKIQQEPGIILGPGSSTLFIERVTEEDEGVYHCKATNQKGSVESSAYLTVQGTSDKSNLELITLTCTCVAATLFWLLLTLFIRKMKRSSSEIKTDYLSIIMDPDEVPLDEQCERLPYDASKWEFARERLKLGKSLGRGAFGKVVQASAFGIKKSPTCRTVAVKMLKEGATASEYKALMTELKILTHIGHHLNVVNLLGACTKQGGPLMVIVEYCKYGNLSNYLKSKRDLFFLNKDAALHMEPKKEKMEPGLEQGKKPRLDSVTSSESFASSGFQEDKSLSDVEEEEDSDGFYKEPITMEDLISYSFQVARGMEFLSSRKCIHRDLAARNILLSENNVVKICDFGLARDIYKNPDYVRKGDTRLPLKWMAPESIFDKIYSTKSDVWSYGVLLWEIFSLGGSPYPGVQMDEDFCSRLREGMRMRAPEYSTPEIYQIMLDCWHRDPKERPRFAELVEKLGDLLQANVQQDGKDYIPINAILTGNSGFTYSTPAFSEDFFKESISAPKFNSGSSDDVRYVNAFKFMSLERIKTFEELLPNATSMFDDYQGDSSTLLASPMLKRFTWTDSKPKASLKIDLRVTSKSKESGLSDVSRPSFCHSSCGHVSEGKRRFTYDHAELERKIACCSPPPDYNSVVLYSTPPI
T2 sequence (P10721 26-976 V559D/V654A): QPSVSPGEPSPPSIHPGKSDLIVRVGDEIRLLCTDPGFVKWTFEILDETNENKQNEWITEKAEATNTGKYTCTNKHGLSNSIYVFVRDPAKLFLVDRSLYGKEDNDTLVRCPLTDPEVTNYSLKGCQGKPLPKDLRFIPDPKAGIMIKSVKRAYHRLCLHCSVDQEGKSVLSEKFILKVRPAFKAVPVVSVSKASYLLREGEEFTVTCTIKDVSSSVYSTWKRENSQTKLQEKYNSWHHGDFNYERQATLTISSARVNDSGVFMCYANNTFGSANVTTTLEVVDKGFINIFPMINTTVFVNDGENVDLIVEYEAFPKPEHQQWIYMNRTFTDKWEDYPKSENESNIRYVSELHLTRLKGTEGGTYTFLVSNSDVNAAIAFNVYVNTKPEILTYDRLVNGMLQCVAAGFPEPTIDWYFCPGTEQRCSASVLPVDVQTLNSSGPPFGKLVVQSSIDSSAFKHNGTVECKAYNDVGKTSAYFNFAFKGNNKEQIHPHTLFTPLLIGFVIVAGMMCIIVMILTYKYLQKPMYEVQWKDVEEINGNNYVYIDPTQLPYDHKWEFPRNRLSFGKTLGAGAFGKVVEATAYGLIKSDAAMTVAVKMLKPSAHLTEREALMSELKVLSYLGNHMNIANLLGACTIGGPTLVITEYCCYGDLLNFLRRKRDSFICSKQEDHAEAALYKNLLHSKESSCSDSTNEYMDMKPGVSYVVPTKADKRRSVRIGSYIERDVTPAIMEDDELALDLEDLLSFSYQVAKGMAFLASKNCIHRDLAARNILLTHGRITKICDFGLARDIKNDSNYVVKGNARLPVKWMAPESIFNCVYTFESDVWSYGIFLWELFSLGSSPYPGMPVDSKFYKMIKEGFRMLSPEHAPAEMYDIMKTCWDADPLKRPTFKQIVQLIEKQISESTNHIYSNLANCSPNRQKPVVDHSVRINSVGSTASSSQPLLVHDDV
T3 sequence (P10721 26-976 V559D/T670I): as the sequence (P10721 26-976 V559D/V654A) above, with A629V, T645I counted along it
T1 sequence (P09619 33-1106): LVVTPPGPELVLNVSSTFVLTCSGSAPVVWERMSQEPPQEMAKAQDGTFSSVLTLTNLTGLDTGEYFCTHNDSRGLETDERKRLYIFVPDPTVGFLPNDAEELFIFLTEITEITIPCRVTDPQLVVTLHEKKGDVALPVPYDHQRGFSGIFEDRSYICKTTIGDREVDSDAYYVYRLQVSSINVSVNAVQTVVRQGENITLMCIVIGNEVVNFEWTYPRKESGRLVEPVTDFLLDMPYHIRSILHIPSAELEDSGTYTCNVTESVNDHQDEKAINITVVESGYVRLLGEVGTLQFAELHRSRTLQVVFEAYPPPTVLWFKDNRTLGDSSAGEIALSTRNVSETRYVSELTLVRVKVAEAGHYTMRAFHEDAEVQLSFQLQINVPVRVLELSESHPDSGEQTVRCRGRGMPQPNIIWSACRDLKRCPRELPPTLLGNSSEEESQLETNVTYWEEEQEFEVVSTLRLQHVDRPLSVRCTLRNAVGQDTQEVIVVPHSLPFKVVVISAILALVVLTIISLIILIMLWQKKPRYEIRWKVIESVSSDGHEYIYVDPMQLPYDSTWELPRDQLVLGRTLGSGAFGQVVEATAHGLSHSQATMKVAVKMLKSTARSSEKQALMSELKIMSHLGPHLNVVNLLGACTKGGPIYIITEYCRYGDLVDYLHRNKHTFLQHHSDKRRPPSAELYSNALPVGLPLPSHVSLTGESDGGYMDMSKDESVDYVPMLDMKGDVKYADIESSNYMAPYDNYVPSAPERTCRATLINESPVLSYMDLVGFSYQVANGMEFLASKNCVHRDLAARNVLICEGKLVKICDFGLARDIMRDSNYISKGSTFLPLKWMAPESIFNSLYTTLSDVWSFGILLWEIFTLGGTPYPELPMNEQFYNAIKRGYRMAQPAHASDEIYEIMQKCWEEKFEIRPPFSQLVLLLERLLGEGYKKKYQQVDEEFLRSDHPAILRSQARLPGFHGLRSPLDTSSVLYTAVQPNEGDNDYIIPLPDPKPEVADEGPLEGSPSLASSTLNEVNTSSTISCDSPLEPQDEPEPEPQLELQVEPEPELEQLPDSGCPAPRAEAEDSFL

| SMILES | % Ctrl, PDGFRB ([1]; target PDGFRB; 1 μM) [% Ctrl] | % Ctrl, KIT(V559D, V654A) ([2]; target KIT(V559D, V654A); 1 μM) [% Ctrl] | % Ctrl, KIT(V559D, T670I) ([3]; target KIT(V559D, T670I); 1 μM) [% Ctrl] | % Ctrl, FLT1 ([4]; target FLT1; 1 μM) [% Ctrl] | % Ctrl, FLT3-autoinhibited [5, 7] [% Ctrl] | % Ctrl, FLT3 ([5]; target FLT3; 1 μM) [% Ctrl] | % Ctrl, FLT3(R834Q) ([6]; target FLT3(R834Q); 1 μM) [% Ctrl] | % Ctrl, PDGFRB ([1]; 1 μM; target PDGFRB) [% Ctrl] | % Ctrl, KIT(V559D, V654A) ([2]; 1 μM; target KIT(V559D, V654A)) [% Ctrl] | % Ctrl, KIT(V559D, T670I) ([3]; 1 μM; target KIT(V559D, T670I)) [% Ctrl] | % Ctrl, FLT1 ([4]; 1 μM; target FLT1) [% Ctrl] | % Ctrl, FLT3 ([5]; 1 μM; target FLT3) [% Ctrl] | % Ctrl, FLT3-autoinhibited [5, 8] [% Ctrl] | % Ctrl, FLT3(R834Q) ([6]; 1 μM; target FLT3(R834Q)) [% Ctrl] |
| --- | --- | --- | --- | --- | --- | --- | --- | --- | --- | --- | --- | --- | --- | --- |
| Cc1cc2c([nH]1)/C=C1\C(=O)Nc3cc(Cl)c(cc31)OCCO[C@@H](C(=O)N1CCN(C)CC1)CN(C)C2=O [Ex. 138, [7R,16a(17)Z]-19-chloro-2,5-dimethyl-7-(4-methylpipearazine-1-carbonyl)-6,7,9,10-tetrahydro-1H-12,14-(ethanediylidene)dipyrrolo[3,2-i:3′,4′-l][1,4,7]dioxazacyclopentadecine-4,16(5H,15H)-dione] | 95 | 62 | 73 | 96 | 76 | 77 | 99 | – | – | – | – | – | – | – |
| Cc1cc2c([nH]1)/C=C1\C(=O)Nc3ccc(cc31)-c1c(noc1C)CNCCN(C)C2=O [Ex. 139, [3a(4)Z]-6,9,16-trimethyl-10,11,12,13-tetrahydro-2H-1,17-(ethanediylidene)[1,2]oxazolo[4,3-m]dipyrrolo[3,2-f:3′,4′-i][1,4]diazacyclopentadecine-3,8(5H,9H)-dione] | 73 | 75 | 69 | 65 | 67 | 33 | 39 | – | – | – | – | – | – | – |
| CN1CCOCCOc2cc3c(cc2Cl)NC(=O)/C3=C\c2[nH]ccc2C1=O [Ex. 143, [16a(17)Z]-19-chloro-2,5-dimethyl-6,7,9,10-tetrahydro-1H-12,14-(ethanediylidene)dipyrrolo[3,2-i:3′,4′-l][1,4,7]oxathiazacyclopentadecine-4,16(5H,15H)-dione] | 32 | 33 | 1.6 | 11 | 62 | 15 | 33 | – | – | – | – | – | – | – |
| Cc1cc2c([nH]1)/C=C1\C(=O)Nc3ccc(cc31)-c1c(C)nn(C)c1COCCN(C)C2=O [Ex. 146, [3a(4)Z]-6,9,14,16-tetramethyl-10,11,13,14-tetrahydro-2H-1,17-(ethanediylidene)pyrazolo[4,3-m]dipyrrolo[3,2-f:3′,4′-i][1,4]oxazacyclopentadecine-3,8(5H,9H)-dione] | 96 | 97 | 75 | 100 | 100 | 24 | 97 | – | – | – | – | – | – | – |
| Cc1nn(C)c2c1-c1ccc3c(c1)/C(=C/c1[nH]ccc1C(=O)N(C)CCCO2)C(=O)N3 [Ex. 150, [3a(4)Z]-9,14,16-trimethyl-10,11,13,14-tetrahydro-2H-1,17-(ethanediylidene)pyrazolo[4,3-m]dipyrrolo[3,2-f:3′,4′-i][1,4]oxazacyclopentadecine-3,8(5H,9H)-dione] | 96 | 100 | 97 | 100 | 82 | 71 | 69 | – | – | – | – | – | – | – |
| CN1CCSCCOc2cc3c(cc2Cl)NC(=O)/C3=C\c2[nH]ccc2C1=O [Ex. 153] | 0.5 | 13 | 0.3 | 3.5 | 26 | 1.6 | 19 | – | – | – | – | – | – | – |
| Cc1cc2c([nH]1)/C=C1\C(=O)Nc3ccc(cc31)-c1c(noc1C(C)C)COCCN(C)C2=O [Ex. 161, [3a(4)Z]-9-methyl-16-(propan-2-yl)-10,11-dihydro-2H,13H-1,17-(ethanediylidene)[1,2]oxazolo[4,3-m]dipyrrolo[3,2-f:3′,4′-i][1,4]oxazacyclopentadecine-3,8(5H,9H)-dione] | – | – | – | – | – | – | – | 98 | 87 | 95 | 82 | 100 | 100 | 100 |
| CN1CCOc2cc3c(cc2Cl)NC(=O)/C3=C\c2[nH]ccc2C(=O)N(C)CC1 [Ex. 164, [16a(17)Z]-19-chloro-2,5,8-trimethyl-5,6,7,8,9,10-hexahydro-12,14-(ethanediylidene)dipyrrolo[3,2-i:3′,4′-l][1,4,7]oxadiazacyclopentadecine-4,16(1H,15H)-dione] | – | – | – | – | – | – | – | 0.9 | 27 | 2.4 | 13 | 2.5 | 63 | 13 |
